From patent publication USRE47437E1, “Prolyl hydroxylase inhibitors and methods of use” (Akebia Therapeutics, Inc., priority 2015, dated 2019)

Tests used:
HIF-1α = assay: Mouse tissue HIF Western blot analysis; assay type: in vivo; settings: mouse liver; FIG. 1
Description: (§1) Mouse Ischemic Hindlimb Study
(§2) All animal work is conducted in accordance with the Guide for the Care and Use of Laboratory Animals (National Academy of Sciences; Copyright© 1996) and the Institutional Animal Care and Use Committee guidelines at Procter and Gamble Pharmaceuticals. We studied 9-10 week old male C57Bl/6 mice from Charles River Laboratory (Portage, Mich.). The mice are orally dosed with vehicle (aqueous carbonate buffer, 50 mM; pH 9.0) or compound 1 in vehicle at 50 mg/kg or 100 mg/kg. The animals are dosed three times: day 1 at 8 am and 5 pm, day 2 at 8 am. One hour after the first dose, unilateral arterial ligation is performed under anesthesia using isoflurane. The femoral artery is ligated proximal to the origin of the popliteal artery. The contralateral limb underwent a sham surgical procedure. Ligation is performed in an alternating fashion between right and left hindlimbs. Two hours after 8 am dosing on day 2, we obtained blood by ventricular stick while the mice are anesthetized with isoflurane. Serum samples for EPO analysis are obtained using gel clot serum separation tubes. Heart, liver, and gastrocnemius muscles are harvested, snap-frozen in liquid nitrogen, and stored in −80° C. until use.
Mouse Tissue HIF Western Blot Analysis
Tissues from mice stored at −80° C. are powdered with mortar and pestle chilled with liquid nitrogen. […]

EPO = assay: Mouse serum EPO assay (mouse ischemic hindlimb study); assay type: in vivo; settings: versus vehicle; after oral dosing; FIG. 2
Description: as §1, §2
The mouse serum EPO is detected using Mouse Quantikine Erythropoietin ELISA kit from R&D Systems according to manufacturer's instructions.

## O=C(O)CNC(=O)c1ncc(-c2cccc(Cl)c2)cc1O [{[5-(3-Chlorophenyl)-3-hydroxypyridine-2-carbonyl]amino}-acetic acid]
HIF-1α
  stabilization of HIF-1α, immunoblot analysis of nuclear extracts: stabilization of HIF-1α in mouse liver
EPO
  erythropoietin level in mouse serum: elevated versus vehicle
